Earlier results on two compounds are cited in publication PMC8447191, “Peptide Amphiphilic-Based Supramolecular Structures with Anti-HIV-1 Activity” (Bioconjugate Chemistry, 2021).

On the set-up of this data set: method as in 2 sources, ref 31, 32 = [31]; doi:10.1007/BF02682570; Schick M. J. ( 1966 ) Micelle formation in mixtures of nonionic and cationic detergents . J. Am. Oil Chem. Soc. 43 , 681 – 682 . 10.1007/BF02682570 . || [32]; doi:10.1016/0021-9797(70)90007-X; Barry B. W.; Morrison J. C.; Russell G. F. ( 1970 ) Prediction of the critical micelle concentration of mixtures of alkyltrimethylammonium salts . J. Colloid Interface Sci. 33 , 554 – 561 . 10.1016/ ||| ref 33, 34 = [33]; PMID 17658541; doi:10.1016/j.jcis.2007.06.010; Rodríguez J. L.; Sierra M. B.; Messina P. V.; Morini M. A.; Schulz P. C.; del Burgo P.; Junquera E.; Rodríguez A.; Aicart E. ( 2007 ) Surface and bulk properties of aqueous decyltrimethylammon || [34]; PMID 25356774; doi:10.1039/C4SM01575D; Pucci C.; Pérez L.; La Mesa C.; Pons R. ( 2014 ) Characterization and stability of catanionic vesicles formed by pseudo-tetraalkyl surfactant mixtures . Soft Matter 10 , 9657 – 9667 . 10.1039/C4SM0. Conditions: cited from earlier work.

Each structure is given as a SMILES string.

Turning to `CCCCCCCCCCCC[N+](C)(C)C.[Br-]` [dodecyl trimethyl ammonium bromide], the CMC was 14.5 mM.

For `CCCCCCCCCCCCCCCC[N+](C)(C)C` [hexadecyl trimethyl ammonium bromide], the CMC was 0.8 mM.
